Test system: 633275-114-R-J1-PDC complex spheroids, viability
Assay: Anticancer human tumor 633275-114-R-J1-PDC patient-derived endometrial adenocarcinoma cell line growth inhibition [GQUAD]
Settings: for IC50: curve of first compound; for viability, T/C: stronger effect = lower value
In short: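 Tumor cells were grown as complex spheroids with HUVEC endothelial cells and mesenchymal stem cells as stroma. G-quadruplex stabilizers were combined with targeted agents over half-log dilutions from near the clinical Cmax, or from 10 microM.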

[1] = second compound 0.0316 µM, first compound 0.0316 µM
[2] = second compound 0.0316 µM, first compound 0.1 µM
[3] = second compound 0.0316 µM, first compound 0.316 µM
[4] = second compound 0.0316 µM, first compound 1 µM
[5] = second compound 0.0316 µM, first compound 3.16 µM
[6] = second compound 0.0316 µM, first compound 10 µM
[7] = second compound 0.1 µM, first compound 0.0316 µM
[8] = second compound 0.1 µM, first compound 0.1 µM
[9] = second compound 0.1 µM, first compound 0.316 µM
[10] = second compound 0.1 µM, first compound 1 µM
[11] = second compound 0.1 µM, first compound 3.16 µM
[12] = second compound 0.1 µM, first compound 10 µM
[13] = second compound 0.316 µM, first compound 0.0316 µM
[14] = second compound 0.316 µM, first compound 0.1 µM
[15] = second compound 0.316 µM, first compound 0.316 µM
[16] = second compound 0.316 µM, first compound 1 µM
[17] = second compound 0.316 µM, first compound 3.16 µM
[18] = second compound 0.316 µM, first compound 10 µM
[19] = second compound 1 µM, first compound 0.0316 µM
[20] = second compound 1 µM, first compound 0.1 µM
[21] = second compound 1 µM, first compound 0.316 µM
[22] = second compound 1 µM, first compound 1 µM
[23] = second compound 1 µM, first compound 3.16 µM
[24] = second compound 1 µM, first compound 10 µM
[25] = second compound 3.16 µM, first compound 0.0316 µM
[26] = second compound 3.16 µM, first compound 0.1 µM
[27] = second compound 3.16 µM, first compound 0.316 µM
[28] = second compound 3.16 µM, first compound 1 µM
[29] = second compound 3.16 µM, first compound 3.16 µM
[30] = second compound 3.16 µM, first compound 10 µM
[31] = second compound 10 µM, first compound 0.0316 µM
[32] = second compound 10 µM, first compound 0.1 µM
[33] = second compound 10 µM, first compound 0.316 µM
[34] = second compound 10 µM, first compound 1 µM
[35] = second compound 10 µM, first compound 3.16 µM
[36] = second compound 10 µM, first compound 10 µM
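Note: spheroids exposed to the agents for seven days.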
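Throughout, for viability, T/C: percent of DMSO vehicle control viability which is 100%.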

Structure (SMILES): CCCS(=O)(=O)Nc1ccc(F)c(C(=O)c2c[nH]c3ncc(-c4ccc(Cl)cc4)cc23)c1F + CN(C)c1ccc(Nc2c3ccc(NC(=O)CCN4CCCC4)cc3nc3cc(NC(=O)CCN4CCCC4)ccc23)cc1
- IC50 (second compound 0.0316 µM): 8.89 µM
- IC50 (second compound 0.1 µM): 9.28 µM
- IC50 (second compound 0.316 µM): 9.53 µM
- IC50 (second compound 1 µM): 8.32 µM
- IC50 (second compound 3.16 µM): 5.04 µM
- IC50 (second compound 10 µM): < 0.0316 µM
- viability, T/C [1]: 93.3%
- viability, T/C [2]: 97.6%
- viability, T/C [3]: 98.5%
- viability, T/C [4]: 100%
- viability, T/C [5]: 91%
- viability, T/C [6]: 45.2%
- viability, T/C [7]: 90.6%
- viability, T/C [8]: 109%
- viability, T/C [9]: 103%
- viability, T/C [10]: 103%
- viability, T/C [11]: 91.4%
- viability, T/C [12]: 46.8%
- viability, T/C [13]: 100%
- viability, T/C [14]: 108%
- viability, T/C [15]: 103%
- viability, T/C [16]: 111%
- viability, T/C [17]: 85.8%
- viability, T/C [18]: 48.4%
- viability, T/C [19]: 97.1%
- viability, T/C [20]: 106%
- viability, T/C [21]: 103%
- viability, T/C [22]: 99.1%
- viability, T/C [23]: 83.9%
- viability, T/C [24]: 43.4%
- viability, T/C [25]: 92.5%
- viability, T/C [26]: 89%
- viability, T/C [27]: 94.8%
- viability, T/C [28]: 94.3%
- viability, T/C [29]: 69%
- viability, T/C [30]: 22.3%
- viability, T/C [31]: 33.7%
- viability, T/C [32]: 31.8%
- viability, T/C [33]: 31.6%
- viability, T/C [34]: 33.6%
- viability, T/C [35]: 25.1%
- viability, T/C [36]: 7.58%

Structure (SMILES): Cc1cccc(N(C)C(=O)C2C(O)CCN2c2nc(C)cc(C(F)(F)F)c2C#N)c1 (centres undefined) + Cc1[nH]c2ccc(F)cc2c1-c1nc2c3cccnc3c3ncccc3c2[nH]1
- IC50 (second compound 0.0316 µM): > 10 µM
- IC50 (second compound 0.1 µM): > 10 µM
- IC50 (second compound 0.316 µM): > 10 µM
- IC50 (second compound 1 µM): > 10 µM
- IC50 (second compound 3.16 µM): > 10 µM
- IC50 (second compound 10 µM): > 10 µM
- viability, T/C [1]: 108%
- viability, T/C [2]: 97.1%
- viability, T/C [3]: 103%
- viability, T/C [4]: 94%
- viability, T/C [5]: 99.8%
- viability, T/C [6]: 99.4%
- viability, T/C [7]: 99.2%
- viability, T/C [8]: 99.9%
- viability, T/C [9]: 97.4%
- viability, T/C [10]: 94.3%
- viability, T/C [11]: 91.6%
- viability, T/C [12]: 101%
- viability, T/C [13]: 91.1%
- viability, T/C [14]: 101%
- viability, T/C [15]: 99.5%
- viability, T/C [16]: 98.9%
- viability, T/C [17]: 98%
- viability, T/C [18]: 99.2%
- viability, T/C [19]: 86.4%
- viability, T/C [20]: 86.2%
- viability, T/C [21]: 90.1%
- viability, T/C [22]: 90.4%
- viability, T/C [23]: 91.7%
- viability, T/C [24]: 92.9%
- viability, T/C [25]: 73.8%
- viability, T/C [26]: 71.6%
- viability, T/C [27]: 76.7%
- viability, T/C [28]: 74.4%
- viability, T/C [29]: 79.3%
- viability, T/C [30]: 75.5%
- viability, T/C [31]: 69.6%
- viability, T/C [32]: 77.7%
- viability, T/C [33]: 79.1%
- viability, T/C [34]: 72.6%
- viability, T/C [35]: 69.8%
- viability, T/C [36]: 71.2%

Source: PubChem BioAssay AID2060505 (Molecular Pharmacology Branch, DTP, NCI, 2025)
